Test results reported in PubChem BioAssay (NCI).
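In this assay, cells in 96-well plates receive the compound at five concentrations for 48 hours. Endpoints are linearly interpolated between the surrounding concentrations. Definition used: TGI = concentration required for complete inhibition of growth.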

Legend:
Experiment in all cases: NCI tumour cell line growth inhibition, 48 h
SF-539 CNS = test system: SF-539 CNS
HCC-2998 colon = test system: HCC-2998 colon
SW-620 colon = test system: SW-620 colon
SF-295 CNS = test system: SF-295 CNS
T-47D breast = test system: T-47D breast
COLO 205 colon = test system: COLO 205 colon
SNB-78 CNS = test system: SNB-78 CNS
UO-31 renal = test system: UO-31 renal
PC-3 prostate = test system: PC-3 prostate
HS 578T breast = test system: HS 578T breast
KM12 colon = test system: KM12 colon
SNB-75 CNS = test system: SNB-75 CNS
RXF 393 renal = test system: RXF 393 renal
HOP-62 NSCLC = test system: HOP-62 NSCLC
786-0 renal = test system: 786-0 renal
SK-MEL-2 melanoma = test system: SK-MEL-2 melanoma
SNB-19 CNS = test system: SNB-19 CNS
LOX IMVI melanoma = test system: LOX IMVI melanoma
NCI/ADR-RES ovarian = test system: NCI/ADR-RES ovarian
XF 498 CNS = test system: XF 498 CNS
CAKI-1 renal = test system: CAKI-1 renal
HOP-92 NSCLC = test system: HOP-92 NSCLC
UACC-62 melanoma = test system: UACC-62 melanoma
OVCAR-8 ovarian = test system: OVCAR-8 ovarian
SK-MEL-28 melanoma = test system: SK-MEL-28 melanoma
SN12C renal = test system: SN12C renal
DMS 273 small cell lung = test system: DMS 273 small cell lung
M19-MEL melanoma = test system: M19-MEL melanoma
NCI-H226 lung = test system: NCI-H226 lung
SK-MEL-5 melanoma = test system: SK-MEL-5 melanoma
K-562 leukemia = test system: K-562 leukemia
SK-OV-3 ovarian = test system: SK-OV-3 ovarian
LXFL 529 NSCLC = test system: LXFL 529 NSCLC
RPMI-8226 leukemia = test system: RPMI-8226 leukemia
MALME-3M melanoma = test system: MALME-3M melanoma
DU-145 prostate = test system: DU-145 prostate
OVCAR-4 ovarian = test system: OVCAR-4 ovarian
ACHN renal = test system: ACHN renal
MOLT-4 leukemia = test system: MOLT-4 leukemia
SF-268 CNS = test system: SF-268 CNS
TK-10 renal = test system: TK-10 renal
BT-549 breast = test system: BT-549 breast
UACC-257 melanoma = test system: UACC-257 melanoma
NCI-H460 lung = test system: NCI-H460 lung
HCT-116 colon = test system: HCT-116 colon
U251 CNS = test system: U251 CNS
OVCAR-3 ovarian = test system: OVCAR-3 ovarian
NCI-H23 lung = test system: NCI-H23 lung
A498 renal = test system: A498 renal
MDA-MB-435 = test system: MDA-MB-435
MDA-MB-231 breast = test system: MDA-MB-231 breast
OVCAR-5 ovarian = test system: OVCAR-5 ovarian
NCI-H522 lung = test system: NCI-H522 lung
HL-60(TB) leukemia = test system: HL-60(TB) leukemia
DLD-1 colon = test system: DLD-1 colon
RXF-631 renal = test system: RXF-631 renal
DMS 114 small cell lung = test system: DMS 114 small cell lung
MCF7 breast = test system: MCF7 breast
M14 melanoma = test system: M14 melanoma
A549 NSCLC = test system: A549 NSCLC
CCRF-CEM leukemia = test system: CCRF-CEM leukemia
HCT-15 colon = test system: HCT-15 colon
HT29 colon = test system: HT29 colon
IGROV1 ovarian = test system: IGROV1 ovarian
SR leukemia = test system: SR leukemia
MDA-N = test system: MDA-N
KM20L2 colon = test system: KM20L2 colon
EKVX NSCLC = test system: EKVX NSCLC
HOP-18 NSCLC = test system: HOP-18 NSCLC

Measured: TGI

N#C/C(=C\c1cc(O)c(O)c(O)c1)C(N)=O
> 81.5 µM: HL-60(TB) leukemia
> 65.6 µM: LOX IMVI melanoma
> 76.2 µM: CCRF-CEM leukemia
> 92.3 µM: SR leukemia
> 56 µM: MCF7 breast
> 100 µM: SF-539 CNS | HCC-2998 colon | SW-620 colon | SF-295 CNS | T-47D breast | COLO 205 colon | SNB-78 CNS | UO-31 renal | PC-3 prostate | HS 578T breast | KM12 colon | SNB-75 CNS | RXF 393 renal | HOP-62 NSCLC | 786-0 renal | SK-MEL-2 melanoma | SNB-19 CNS | NCI/ADR-RES ovarian | XF 498 CNS | CAKI-1 renal | HOP-92 NSCLC | UACC-62 melanoma | OVCAR-8 ovarian | SK-MEL-28 melanoma | SN12C renal | DMS 273 small cell lung | M19-MEL melanoma | NCI-H226 lung | SK-MEL-5 melanoma | K-562 leukemia | SK-OV-3 ovarian | LXFL 529 NSCLC | RPMI-8226 leukemia | MALME-3M melanoma | DU-145 prostate | OVCAR-4 ovarian | ACHN renal | MOLT-4 leukemia | SF-268 CNS | TK-10 renal | BT-549 breast | UACC-257 melanoma | NCI-H460 lung | HCT-116 colon | U251 CNS | OVCAR-3 ovarian | NCI-H23 lung | A498 renal | MDA-MB-435 | MDA-MB-231 breast | OVCAR-5 ovarian | NCI-H522 lung | DLD-1 colon | RXF-631 renal | DMS 114 small cell lung | M14 melanoma | A549 NSCLC | HCT-15 colon | HT29 colon | IGROV1 ovarian | MDA-N | KM20L2 colon | EKVX NSCLC

COC(=O)C1=CC2C(=O)OC1C1C(=O)NC(=O)C21 (stereo unspecified)
> 100 µM: SF-539 CNS | HCC-2998 colon | SW-620 colon | SF-295 CNS | COLO 205 colon | SNB-78 CNS | HOP-18 NSCLC | UO-31 renal | KM12 colon | SNB-75 CNS | HOP-62 NSCLC | 786-0 renal | SNB-19 CNS | LOX IMVI melanoma | XF 498 CNS | CAKI-1 renal | HOP-92 NSCLC | UACC-62 melanoma | OVCAR-8 ovarian | SK-MEL-28 melanoma | SN12C renal | DMS 273 small cell lung | M19-MEL melanoma | SK-MEL-5 melanoma | K-562 leukemia | SK-OV-3 ovarian | LXFL 529 NSCLC | RPMI-8226 leukemia | MALME-3M melanoma | OVCAR-4 ovarian | ACHN renal | MOLT-4 leukemia | SF-268 CNS | TK-10 renal | UACC-257 melanoma | NCI-H460 lung | HCT-116 colon | U251 CNS | OVCAR-3 ovarian | NCI-H23 lung | A498 renal | NCI-H522 lung | HL-60(TB) leukemia | DLD-1 colon | RXF-631 renal | DMS 114 small cell lung | M14 melanoma | A549 NSCLC | CCRF-CEM leukemia | HT29 colon | IGROV1 ovarian | SR leukemia | KM20L2 colon
